Laboratory results as given in PubChem BioAssay (NCI).
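Method: 48-hour compound exposure of cells in 96-well plates, five concentrations, linear interpolation of endpoints. Abbreviation: GI50, concentration required for 50% inhibition of growth. The concentration for full growth arrest is given as TGI.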

Key:
Test in all cases: inhibition of tumour cell growth, NCI panel, 48 h
HS 578T breast = test system: HS 578T breast
RXF 393 renal = test system: RXF 393 renal
786-0 renal = test system: 786-0 renal
SN12C renal = test system: SN12C renal
ACHN renal = test system: ACHN renal
SF-295 CNS = test system: SF-295 CNS
A498 renal = test system: A498 renal
HT29 colon = test system: HT29 colon
CAKI-1 renal = test system: CAKI-1 renal
SNB-75 CNS = test system: SNB-75 CNS
HCT-15 colon = test system: HCT-15 colon
UACC-257 melanoma = test system: UACC-257 melanoma
LOX IMVI melanoma = test system: LOX IMVI melanoma
COLO 205 colon = test system: COLO 205 colon
SR leukemia = test system: SR leukemia
K-562 leukemia = test system: K-562 leukemia
PC-3 prostate = test system: PC-3 prostate
RPMI-8226 leukemia = test system: RPMI-8226 leukemia
MOLT-4 leukemia = test system: MOLT-4 leukemia
DU-145 prostate = test system: DU-145 prostate
MDA-MB-231 breast = test system: MDA-MB-231 breast
SW-620 colon = test system: SW-620 colon
OVCAR-4 ovarian = test system: OVCAR-4 ovarian
NCI-H226 lung = test system: NCI-H226 lung
NCI-H23 lung = test system: NCI-H23 lung
SK-MEL-5 melanoma = test system: SK-MEL-5 melanoma
HCT-116 colon = test system: HCT-116 colon
MDA-MB-435 = test system: MDA-MB-435
BT-549 breast = test system: BT-549 breast
NCI/ADR-RES ovarian = test system: NCI/ADR-RES ovarian
HOP-62 NSCLC = test system: HOP-62 NSCLC
HL-60(TB) leukemia = test system: HL-60(TB) leukemia
OVCAR-8 ovarian = test system: OVCAR-8 ovarian
OVCAR-3 ovarian = test system: OVCAR-3 ovarian
OVCAR-5 ovarian = test system: OVCAR-5 ovarian
HCC-2998 colon = test system: HCC-2998 colon
MALME-3M melanoma = test system: MALME-3M melanoma
IGROV1 ovarian = test system: IGROV1 ovarian
SK-OV-3 ovarian = test system: SK-OV-3 ovarian
MCF7 breast = test system: MCF7 breast
UACC-62 melanoma = test system: UACC-62 melanoma
KM12 colon = test system: KM12 colon
HOP-92 NSCLC = test system: HOP-92 NSCLC
M14 melanoma = test system: M14 melanoma
SF-539 CNS = test system: SF-539 CNS
SK-MEL-2 melanoma = test system: SK-MEL-2 melanoma
UO-31 renal = test system: UO-31 renal
NCI-H460 lung = test system: NCI-H460 lung
NCI-H522 lung = test system: NCI-H522 lung
T-47D breast = test system: T-47D breast
U251 CNS = test system: U251 CNS
CCRF-CEM leukemia = test system: CCRF-CEM leukemia
SK-MEL-28 melanoma = test system: SK-MEL-28 melanoma
SF-268 CNS = test system: SF-268 CNS
TK-10 renal = test system: TK-10 renal
A549 NSCLC = test system: A549 NSCLC
SNB-19 CNS = test system: SNB-19 CNS

Compound: c1ccc(CN2COc3c(ccc4c3OCN(Cc3ccccc3)C4)C2)cc1
- GI50 (HS 578T breast): 1.91 µM
- TGI (HS 578T breast): > 100 µM
- GI50 (RXF 393 renal): 0.41 µM
- TGI (RXF 393 renal): > 100 µM
- GI50 (786-0 renal): 0.809 µM
- TGI (786-0 renal): > 100 µM
- GI50 (SN12C renal): 0.559 µM
- TGI (SN12C renal): > 100 µM
- GI50 (ACHN renal): 0.316 µM
- TGI (ACHN renal): > 100 µM
- GI50 (SF-295 CNS): 0.554 µM
- TGI (SF-295 CNS): > 100 µM
- GI50 (A498 renal): 1.19 µM
- TGI (A498 renal): > 30.3 µM
- GI50 (HT29 colon): 0.955 µM
- TGI (HT29 colon): > 100 µM
- GI50 (CAKI-1 renal): 0.22 µM
- GI50 (SNB-75 CNS): 2.09 µM
- TGI (SNB-75 CNS): > 100 µM
- GI50 (HCT-15 colon): 0.0906 µM
- TGI (HCT-15 colon): > 100 µM
- GI50 (UACC-257 melanoma): 0.763 µM
- TGI (UACC-257 melanoma): 6.53 µM
- GI50 (LOX IMVI melanoma): 0.825 µM
- TGI (LOX IMVI melanoma): > 100 µM
- GI50 (COLO 205 colon): 1.96 µM
- TGI (COLO 205 colon): > 42 µM
- GI50 (SR leukemia): 0.534 µM
- TGI (SR leukemia): > 100 µM
- GI50 (K-562 leukemia): 0.445 µM
- TGI (K-562 leukemia): > 100 µM
- GI50 (PC-3 prostate): 0.579 µM
- TGI (PC-3 prostate): > 100 µM
- GI50 (RPMI-8226 leukemia): 1.41 µM
- TGI (RPMI-8226 leukemia): > 100 µM
- GI50 (MOLT-4 leukemia): 0.409 µM
- TGI (MOLT-4 leukemia): > 100 µM
- GI50 (DU-145 prostate): 0.569 µM
- TGI (DU-145 prostate): > 100 µM
- GI50 (MDA-MB-231 breast): 0.564 µM
- TGI (MDA-MB-231 breast): > 100 µM
- GI50 (SW-620 colon): 0.494 µM
- TGI (SW-620 colon): > 100 µM
- GI50 (OVCAR-4 ovarian): 0.333 µM
- TGI (OVCAR-4 ovarian): > 100 µM
- GI50 (NCI-H226 lung): 0.479 µM
- TGI (NCI-H226 lung): 5.65 µM
- GI50 (NCI-H23 lung): 3.68 µM
- TGI (NCI-H23 lung): > 100 µM
- GI50 (SK-MEL-5 melanoma): 0.501 µM
- TGI (SK-MEL-5 melanoma): 2.04 µM
- GI50 (HCT-116 colon): 0.535 µM
- TGI (HCT-116 colon): > 100 µM
- GI50 (MDA-MB-435): 1.72 µM
- TGI (MDA-MB-435): > 100 µM
- GI50 (BT-549 breast): 2.92 µM
- TGI (BT-549 breast): > 100 µM
- GI50 (NCI/ADR-RES ovarian): 0.256 µM
- TGI (NCI/ADR-RES ovarian): > 100 µM
- GI50 (HOP-62 NSCLC): 0.545 µM
- TGI (HOP-62 NSCLC): > 100 µM
- GI50 (HL-60(TB) leukemia): 2.33 µM
- TGI (HL-60(TB) leukemia): 7.52 µM
- GI50 (OVCAR-8 ovarian): 0.391 µM
- TGI (OVCAR-8 ovarian): > 100 µM
- GI50 (OVCAR-3 ovarian): 0.64 µM
- TGI (OVCAR-3 ovarian): > 89.8 µM
- GI50 (OVCAR-5 ovarian): 0.857 µM
- TGI (OVCAR-5 ovarian): > 100 µM
- GI50 (HCC-2998 colon): 1.21 µM
- TGI (HCC-2998 colon): > 100 µM
- GI50 (MALME-3M melanoma): 3.06 µM
- TGI (MALME-3M melanoma): > 100 µM
- GI50 (IGROV1 ovarian): 0.802 µM
- TGI (IGROV1 ovarian): > 100 µM
- GI50 (SK-OV-3 ovarian): 0.639 µM
- TGI (SK-OV-3 ovarian): > 100 µM
- GI50 (MCF7 breast): 0.515 µM
- TGI (MCF7 breast): > 100 µM
- GI50 (UACC-62 melanoma): 0.937 µM
- TGI (UACC-62 melanoma): 4.24 µM
- GI50 (KM12 colon): 0.621 µM
- TGI (KM12 colon): > 100 µM
- GI50 (HOP-92 NSCLC): 1.18 µM
- TGI (HOP-92 NSCLC): > 100 µM
- GI50 (M14 melanoma): 0.49 µM
- TGI (M14 melanoma): > 100 µM
- GI50 (SF-539 CNS): 1.45 µM
- TGI (SF-539 CNS): 6.41 µM
- GI50 (SK-MEL-2 melanoma): 3.98 µM
- TGI (SK-MEL-2 melanoma): > 100 µM
- GI50 (UO-31 renal): 0.122 µM
- TGI (UO-31 renal): 1.41 µM
- GI50 (NCI-H460 lung): 0.399 µM
- TGI (NCI-H460 lung): > 100 µM
- GI50 (NCI-H522 lung): 2.05 µM
- TGI (NCI-H522 lung): > 100 µM
- GI50 (T-47D breast): 0.96 µM
- TGI (T-47D breast): > 100 µM
- GI50 (U251 CNS): 0.382 µM
- TGI (U251 CNS): > 100 µM
- GI50 (CCRF-CEM leukemia): 0.451 µM
- TGI (CCRF-CEM leukemia): > 100 µM
- GI50 (SK-MEL-28 melanoma): 1.26 µM
- TGI (SK-MEL-28 melanoma): > 100 µM
- GI50 (SF-268 CNS): 0.605 µM
- TGI (SF-268 CNS): > 35.6 µM
- GI50 (TK-10 renal): 0.464 µM
- TGI (TK-10 renal): > 100 µM
- GI50 (A549 NSCLC): 0.477 µM
- TGI (A549 NSCLC): > 100 µM
- GI50 (SNB-19 CNS): 1 µM
- TGI (SNB-19 CNS): > 100 µM
